Assay results reported in PMC12848304, “Small-molecule inhibitor of C‑terminal HSP90 dimerization modulates autophagy and functions synergistically with mTOR inhibition to kill cisplatin-resistant cancer cells” (Cell Death & Disease, 2025).

Legend:
HSP90α CTD = biological target: T1, HSP90α CTD (Homo sapiens, UniProt P07900); assay: thermal shift assay (SYPRO orange, […]) with recombinant HSP90α CTD; supported by BS3 cross-linking (loss of CTD dimers) and CETSA; type: binding; conditions: read-out: thermal shift assay (SYPRO orange, 100 μM) with recombinant HSP90α CTD; supporte
T1 construct: gene HSP90AA1; recombinant C-terminal domain (CTD)

HSP90β = biological target: T2, HSP90β (Homo sapiens, UniProt P08238); assay: TR-FRET HSP90 CTD/PPID interaction assay ([…]); type: biochemical
T2 construct: gene HSP90AB1; C-terminal domain (CTD); with PPID
T2 sequence (P08238 553-724 limits assumed): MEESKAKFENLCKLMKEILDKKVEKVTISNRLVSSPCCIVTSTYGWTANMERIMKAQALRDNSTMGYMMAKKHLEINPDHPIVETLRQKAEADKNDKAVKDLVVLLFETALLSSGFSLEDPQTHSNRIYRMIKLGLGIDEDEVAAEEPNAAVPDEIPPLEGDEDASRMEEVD
T2 sequence (Q08752 2-370 partner): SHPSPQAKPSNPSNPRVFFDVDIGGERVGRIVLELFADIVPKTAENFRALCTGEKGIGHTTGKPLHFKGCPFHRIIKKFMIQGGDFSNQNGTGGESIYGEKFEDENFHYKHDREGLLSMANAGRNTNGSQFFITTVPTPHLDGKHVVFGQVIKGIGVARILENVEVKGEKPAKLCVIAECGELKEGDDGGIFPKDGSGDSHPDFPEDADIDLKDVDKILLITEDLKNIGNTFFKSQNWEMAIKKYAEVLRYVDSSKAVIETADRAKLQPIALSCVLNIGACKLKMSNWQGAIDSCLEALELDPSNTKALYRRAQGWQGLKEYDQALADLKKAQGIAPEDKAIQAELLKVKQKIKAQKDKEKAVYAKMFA

T1 sequence (P07900 626-732 limits assumed): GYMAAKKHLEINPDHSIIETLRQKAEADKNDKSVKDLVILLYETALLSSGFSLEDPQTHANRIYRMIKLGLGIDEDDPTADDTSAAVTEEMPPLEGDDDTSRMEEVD

CCC(C)n1c(C(=O)Nc2cnc(C(=O)NC)n(CC(C)C)c2=O)ncc(NC(=O)c2ncc(N)c(=O)n2Cc2ccc(OC)cc2)c1=O (centres unmarked) [compound 2, VWK147]
ΔTm at 100 µM (HSP90α CTD): -8.43 ± 2.75 °C
TR-FRET HSP90 CTD/PPID interaction assay (1 mM) (HSP90β): VWK147 disrupts the binding of Peptidyl prolyl isomerase D (PPID, CTD-specific co-chaperone) to the CTD of recombinant HSP90β
